The values below are quoted from earlier work in patent US20100330171A1, “Dietary Supplement for Eye Health” (priority 2008, published 2010).

The test system of one data set is tube formation. The conditions noted are these: Matigel-induced tube formation assay.
The next data set has as its target VEGFR-2 (Homo sapiens, UniProt P35968). The conditions noted are these: serum concentrations 0.01-1 microM.
Data set [1] has as its system phosophoinositide-dependent protein kinase, Akt, apoptosis signal-regulating kinase, p38. The conditions noted are these: fibroblast growth factor-treated HUVEC.
Data set [2] has as its system human umbilical vein endothelial cells (HUVEC).
The test system of a further data set is bovine endothelial cells. To be noted: in vitro, bovine endothelial cells stimulated by FGF-2.
A further data set concerns the target MMP-9 (Homo sapiens, UniProt P14780).
For data set [3] the following is noted: compared with ascorbic acid (vitamin C) and tocopherol (vitamin E).
Another data set deals with angiogenesis. The conditions noted are these: chick chorioallantoic membrane assay.
The test system of data set [4] is human colon cancer cell line. To be noted: by blocking the induction of VEGF.
Another data set addresses T1, leukocyte elastase (Homo sapiens, UniProt P08246).
T1 sequence (P08246 30-267): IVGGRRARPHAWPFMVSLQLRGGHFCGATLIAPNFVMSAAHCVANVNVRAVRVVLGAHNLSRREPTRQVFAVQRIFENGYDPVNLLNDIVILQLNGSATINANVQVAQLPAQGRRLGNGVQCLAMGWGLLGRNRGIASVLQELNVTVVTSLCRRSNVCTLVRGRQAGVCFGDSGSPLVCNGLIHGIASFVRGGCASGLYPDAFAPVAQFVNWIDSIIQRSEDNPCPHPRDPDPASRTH

Chain of VEGFR-2 (P35968 20-1356, species assumed): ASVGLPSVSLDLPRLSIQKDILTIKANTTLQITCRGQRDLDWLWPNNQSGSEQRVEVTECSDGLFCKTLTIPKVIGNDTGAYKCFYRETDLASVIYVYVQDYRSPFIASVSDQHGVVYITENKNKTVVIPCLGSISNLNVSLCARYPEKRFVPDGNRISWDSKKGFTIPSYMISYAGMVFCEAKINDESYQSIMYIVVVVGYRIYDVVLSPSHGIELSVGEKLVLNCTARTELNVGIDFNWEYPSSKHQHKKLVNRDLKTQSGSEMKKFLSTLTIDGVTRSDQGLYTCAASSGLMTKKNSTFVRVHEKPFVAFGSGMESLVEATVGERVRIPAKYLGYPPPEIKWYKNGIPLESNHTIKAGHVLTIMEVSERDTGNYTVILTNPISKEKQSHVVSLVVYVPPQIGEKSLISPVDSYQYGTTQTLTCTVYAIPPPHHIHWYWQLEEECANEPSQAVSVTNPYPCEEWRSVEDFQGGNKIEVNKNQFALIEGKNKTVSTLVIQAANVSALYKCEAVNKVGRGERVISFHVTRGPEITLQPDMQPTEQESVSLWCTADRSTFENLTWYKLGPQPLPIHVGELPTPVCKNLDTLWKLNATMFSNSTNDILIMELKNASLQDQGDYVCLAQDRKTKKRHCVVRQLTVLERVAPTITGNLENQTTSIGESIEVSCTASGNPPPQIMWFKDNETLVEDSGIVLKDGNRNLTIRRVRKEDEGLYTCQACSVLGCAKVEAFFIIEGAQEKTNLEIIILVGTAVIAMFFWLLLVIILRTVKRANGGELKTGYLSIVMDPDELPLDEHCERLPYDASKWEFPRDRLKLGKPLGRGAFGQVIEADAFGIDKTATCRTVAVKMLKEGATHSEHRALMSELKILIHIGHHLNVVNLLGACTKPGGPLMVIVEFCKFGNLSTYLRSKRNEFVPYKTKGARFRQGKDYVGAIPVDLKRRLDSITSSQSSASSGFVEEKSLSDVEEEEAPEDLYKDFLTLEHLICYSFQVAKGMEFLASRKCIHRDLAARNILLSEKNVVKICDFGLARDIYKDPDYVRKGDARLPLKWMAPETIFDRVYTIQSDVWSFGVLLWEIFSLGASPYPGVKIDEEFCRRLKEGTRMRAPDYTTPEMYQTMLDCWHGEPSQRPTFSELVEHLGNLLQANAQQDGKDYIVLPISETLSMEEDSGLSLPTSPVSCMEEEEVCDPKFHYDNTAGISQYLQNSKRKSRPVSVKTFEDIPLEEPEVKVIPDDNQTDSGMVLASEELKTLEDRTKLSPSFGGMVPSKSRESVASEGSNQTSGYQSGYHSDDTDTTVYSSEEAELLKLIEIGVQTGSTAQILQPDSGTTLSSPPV
Chain of MMP-9 (P14780 94-707, species assumed): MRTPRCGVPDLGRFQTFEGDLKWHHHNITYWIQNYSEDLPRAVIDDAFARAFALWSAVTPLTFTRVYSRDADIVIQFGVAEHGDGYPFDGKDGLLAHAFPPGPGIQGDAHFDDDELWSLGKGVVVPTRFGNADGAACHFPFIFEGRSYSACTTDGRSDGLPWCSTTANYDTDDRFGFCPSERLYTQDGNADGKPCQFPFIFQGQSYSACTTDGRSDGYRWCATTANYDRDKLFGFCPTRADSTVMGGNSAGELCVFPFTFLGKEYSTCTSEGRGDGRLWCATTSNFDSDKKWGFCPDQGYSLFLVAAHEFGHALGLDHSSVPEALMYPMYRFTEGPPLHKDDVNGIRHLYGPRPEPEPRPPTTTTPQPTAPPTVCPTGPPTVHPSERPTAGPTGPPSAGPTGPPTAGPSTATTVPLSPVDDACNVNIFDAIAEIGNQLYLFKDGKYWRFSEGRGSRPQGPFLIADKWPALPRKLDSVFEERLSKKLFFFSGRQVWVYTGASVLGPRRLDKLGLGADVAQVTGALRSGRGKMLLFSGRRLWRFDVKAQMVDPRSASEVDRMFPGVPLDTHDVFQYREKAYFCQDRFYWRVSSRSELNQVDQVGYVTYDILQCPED

As for `O=C(O[C@@H]1Cc2c(O)cc(O)cc2O[C@H]1c1ccc(O)c(O)c1)c1cc(O)c(O)c(O)c1` [CG, catechin-3 gallate], the tube formation result with tube formation is “almost completely abolished”. For the same compound, the “inhibition of VEGF-dependent phosphorylation of VEGFR-2” value on VEGFR-2 is reported as “inhibit”.
On to `CC(C)=CCC/C(C)=C/CC/C(C)=C/CC[C@]1(C)CCc2cc(O)c(C)c(C)c2O1` [γ-tocotrienol], for which, in data set [1], the “phosphorylation of apoptosis signal-regulating kinase and p38” value is “increasing”; the “phosphorylation of phosophoinositide-dependent protein kinase and Akt” value is “suppressing”. The “suppression of fibroblast growth factor-induced proliferation, migration and tube formation” value in data set [2] was “highest activity”.
Consider Epigallocatechin-3-gallate [EGCG], for which, in the data set on bovine endothelial cells, the endothelial cell growth result was “suppress”. Also, the tube formation entry in the data set on tube formation was “almost completely abolished”. The “inhibition of MMP-9” value on MMP-9 was “inhibits”. Also, in data set [3], the “quenching reactive oxygen species” value is “more effective”. The “inhibition of VEGF-dependent phosphorylation of VEGFR-2” value on VEGFR-2 is reported as “inhibit”. In addition, in the data set with TNF-alpha, the “gene expression of TNF-alpha and the cytokines IL-1 beta and IL-10 induced by TNF-alpha” value is on record as “block”. For the same compound, the “formation of new blood vessels” value with angiogenesis is listed as “block”. Also, in [4], the microvessel density result is given as “reduces”. Also, at leukocyte elastase, the “inhibition of leukocyte elastase” value is “inhibit”.
